From PubChem BioAssay (NCI)
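48-hour exposure; five concentrations; linearly interpolated endpoints. Abbreviation: GI50, concentration required for 50% inhibition of growth. TGI denotes the concentration required for complete inhibition of growth.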

Columns and labels:
Test in all cases: inhibition of tumour cell growth, NCI panel, 48 h
KM12 colon = tested on: KM12 colon
M14 melanoma = tested on: M14 melanoma
SF-539 CNS = tested on: SF-539 CNS
SK-MEL-2 melanoma = tested on: SK-MEL-2 melanoma
SNB-19 CNS = tested on: SNB-19 CNS
SNB-75 CNS = tested on: SNB-75 CNS
SW-620 colon = tested on: SW-620 colon
T-47D breast = tested on: T-47D breast
UACC-257 melanoma = tested on: UACC-257 melanoma
NCI-H460 lung = tested on: NCI-H460 lung

Compound	GI50 (KM12 colon)	TGI (KM12 colon)	GI50 (M14 melanoma)	TGI (M14 melanoma)	GI50 (SF-539 CNS)	TGI (SF-539 CNS)	GI50 (SK-MEL-2 melanoma)	TGI (SK-MEL-2 melanoma)	GI50 (SNB-19 CNS)	TGI (SNB-19 CNS)	GI50 (SNB-75 CNS)	TGI (SNB-75 CNS)	GI50 (SW-620 colon)	TGI (SW-620 colon)	GI50 (T-47D breast)	TGI (T-47D breast)	GI50 (UACC-257 melanoma)	TGI (UACC-257 melanoma)	GI50 (NCI-H460 lung)	TGI (NCI-H460 lung)
CCN(CC)CCOC(COc1cc(C)cc(C)c1)COc1cc(C)cc(C)c1	3.04 µM	11.7 µM	1.35 µM	3.06 µM	1.62 µM	3.3 µM	11.6 µM	25.8 µM	2.3 µM	7.36 µM	5.75 µM	20.8 µM	1.59 µM	4.63 µM	2.34 µM	6.83 µM	4.89 µM	17.2 µM		
Cn1cc(-c2cc(-c3cn(C)c4ccccc34)[nH]n2)c2ccccc21	4.58 µM	> 100 µM	> 100 µM	> 100 µM	16.2 µM	44.3 µM	57.5 µM	> 100 µM	27 µM	> 100 µM	18.4 µM	69.9 µM	> 100 µM	> 100 µM	79.7 µM	> 100 µM	80.6 µM	> 100 µM	4.48 µM	> 100 µM
COC1C(OC(=O)c2ccc(C)[nH]2)C(O)C(Oc2ccc3c(O)c(NC(=O)c4ccc(O)c(CC=C(C)C)c4)c(=O)oc3c2Cl)OC1(C)C (stereo not drawn)		26.1 µM		32.2 µM		38.1 µM		27 µM		30 µM		72.9 µM		38 µM		36.5 µM		> 100 µM		69.5 µM
CN1CCCCC1CCN1c2ccccc2Sc2ccc(Br)cc21 (stereo not drawn)	2.22 µM	4.78 µM	1.83 µM	3.34 µM	2.02 µM	4.01 µM	2.5 µM	5.94 µM	2.92 µM	12.4 µM	1.65 µM	5.56 µM	2.08 µM	5.04 µM	3.61 µM	14.4 µM	1.91 µM	3.55 µM	2.29 µM	5.01 µM
CC(=O)ON(OCc1ccc2ccccc2c1)C(C)=O	> 100 µM	> 100 µM	> 100 µM	> 100 µM	> 100 µM	> 100 µM	> 100 µM	> 100 µM	> 100 µM	> 100 µM	96.6 µM	> 100 µM	> 100 µM	> 100 µM	> 100 µM	> 100 µM	> 100 µM	> 100 µM	> 100 µM	> 100 µM
S=c1ssnc1-c1cc2ccccc2o1	14.1 µM	35.1 µM	16.5 µM	60.7 µM	15.3 µM	29.8 µM	13.8 µM	28.3 µM	16.7 µM	36.8 µM	23.3 µM	95.8 µM	12.7 µM	27.6 µM	21.9 µM	> 100 µM	6.09 µM	20.5 µM	11 µM	29.5 µM
CC1(C)N=C(N)N=C(N)N1c1ccc(CCCC(=O)Nc2ccc(S(=O)(=O)F)cc2)cc1	3.54 µM	> 100 µM	5.44 µM	> 100 µM	2.62 µM	> 100 µM	46.2 µM	> 100 µM	36.5 µM	> 100 µM	10.2 µM	> 100 µM	1.99 µM	> 100 µM	15.8 µM	98.2 µM	24.8 µM	> 100 µM	0.816 µM	> 100 µM
CC(C)(O)C1COC2=C1C(=O)c1ccccc1C2=O (stereo not drawn)		> 100 µM		> 100 µM		> 100 µM		88.6 µM		> 100 µM		82 µM		50.4 µM		> 100 µM		> 100 µM		> 100 µM
COc1cccc(C2CC(=O)Nc3c2c(C)nn3-c2nc3ccccc3[nH]2)c1OC (stereo not drawn)	4.17 µM	19.8 µM	4.45 µM	30.3 µM	2.76 µM	9.38 µM	6.37 µM	32.7 µM	4.07 µM	> 100 µM	2.43 µM	13.5 µM	4.19 µM	46.4 µM	4.02 µM	50.7 µM	5.77 µM	39.8 µM	3.09 µM	10.2 µM
CC(C)(Oc1ccc(-c2cccc3ccccc23)cc1)C(=O)O		> 100 µM		> 100 µM		> 100 µM		> 100 µM		> 100 µM		> 100 µM		> 100 µM		> 100 µM		> 100 µM		> 100 µM
COc1ccc2nc3ccccc3c(NCCNCCO)c2c1	0.455 µM	3.37 µM	0.709 µM	2.24 µM	0.801 µM	2.99 µM	0.448 µM	2.8 µM	0.661 µM	6.9 µM	0.854 µM	2.13 µM	0.362 µM	3.66 µM	0.673 µM	6.71 µM	0.655 µM	2.34 µM	0.341 µM	1.92 µM
O=c1ccc(N=Nc2ccccc2)ccc1O		24.9 µM		28.5 µM		37.2 µM		47.5 µM		> 100 µM		57.8 µM		22.5 µM		42.4 µM		51.7 µM		97.8 µM
O=C1CCC(c2ccccc2)=NN1c1nc2ccccc2s1		> 100 µM		> 100 µM		> 63.7 µM		42.5 µM		> 100 µM		> 79.4 µM		> 100 µM		32.7 µM		> 80.2 µM		> 64.4 µM
CC(C)=C[C@@H]1C[C@H](C)[C@H]2CC[C@H](C)c3c(O)c(OC4OC(C)C(O)C(O)C4O)c(C)c1c32 (stereo partly drawn)	2.63 µM	8.16 µM	11.5 µM	24.9 µM	17.9 µM	33 µM	19.8 µM	35.5 µM	15.7 µM	29.2 µM	14.4 µM	27.7 µM	4.66 µM	16.3 µM	12.5 µM	26.5 µM	14.2 µM	27.3 µM	7.83 µM	21.2 µM
